Biological target: T1, Prostaglandin G/H synthase 1 (Ovis aries, UniProt P05979)
T1 sequence (P05979 whole entry): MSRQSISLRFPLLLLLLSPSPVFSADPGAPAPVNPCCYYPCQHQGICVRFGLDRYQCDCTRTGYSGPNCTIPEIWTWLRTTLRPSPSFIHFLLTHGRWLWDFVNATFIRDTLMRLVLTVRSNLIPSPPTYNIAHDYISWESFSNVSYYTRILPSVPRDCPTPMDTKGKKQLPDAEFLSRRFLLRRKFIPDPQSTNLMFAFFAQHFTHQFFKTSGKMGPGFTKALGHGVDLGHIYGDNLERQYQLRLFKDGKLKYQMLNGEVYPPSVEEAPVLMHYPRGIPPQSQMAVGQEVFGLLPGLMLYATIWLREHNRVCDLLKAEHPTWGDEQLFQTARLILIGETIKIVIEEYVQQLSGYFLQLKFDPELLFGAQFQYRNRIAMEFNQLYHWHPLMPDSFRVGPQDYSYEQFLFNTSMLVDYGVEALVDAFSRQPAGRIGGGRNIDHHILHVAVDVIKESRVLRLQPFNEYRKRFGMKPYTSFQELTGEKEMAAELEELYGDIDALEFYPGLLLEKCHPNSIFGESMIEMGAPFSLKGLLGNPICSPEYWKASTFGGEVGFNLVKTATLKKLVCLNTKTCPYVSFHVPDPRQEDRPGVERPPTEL
Test: Inhibition of ovine COX1 by enzyme immuno assay

IC50 | SMILES
> 50 µM | O=C1Nc2ccc(F)cc2C12CC(c1ccc(Br)cc1)N=N2 (configuration not stated)
> 50 µM | Cc1ccc(C2CC3(N=N2)C(=O)Nc2ccc(F)cc23)cc1 (configuration not stated)

Reference: BindingDB's records for doi:10.1016/j.bmc.2012.03.044 (University of Mansoura, 2012)
